Laboratory results published in BindingDB's records for doi:10.1016/j.bmcl.2005.06.036 (Unit&#233, 2005).

Key:
[1] = molecular target: HIV-1 integrase (Human immunodeficiency virus 1); assay: In vitro inhibitory concentration against HIV-1 recombinant integrase activity in strand transfer assay
[2] = molecular target: HIV-1 integrase (Human immunodeficiency virus 1); assay: In vitro inhibitory concentration against HIV-1 recombinant integrase activity in standard 3'-processing assay

- IC50 [1]: > 100 µM
- IC50 [2]: > 100 µM
SMILES: O=C(c1ccc(O)cc1)c1ccc2ccc(/C=C/c3ccc(O)c(O)c3)nc2c1O [{2-[(E)-2-(3,4-Dihydroxy-phenyl)-vinyl]-8-hydroxy-quinolin-7-yl}-(4-hydroxy-phenyl)-methanone]
